Data: patent EP2563337B1, “CARRIER AND TARGETING SYSTEM COMPRISING A SIOSOMAL COMPOSITION FOR INTRACELLULAR DELIVERY AND TARGETING OF ACTIVE SUBSTANCE” (Salama, Zoser B., priority 2010, dated 2011)
Like-named read-outs stand apart in the source and are kept apart here.

Tests used:
[1] = Encapsulation efficiency of doxorubicin hydrochloride in siosomes (absorbance at 480 nm after gel filtration); format: physicochemical
Procedure: A doxorubicin hydrochloride solution at 10 mg/ml was prepared using physiological saline. The predetermined amount of the doxorubicin hydrochloride solution was added to the sugar siosome dispersion using the cationic organosilicon compounds such as 1.2-(Dimethyldecylsilyl)ethyl-beta-D-glucosamin, 2.2-(Dimethyloctylsilylcholin)ethyl-beta-D-glucopyranosid and/or 1.2-(DiN,N,N,trimethylammoniadecylsilyl)ethyl-beta-D-glucopyranosid and the mixture was adjusted to pH 7.4, using 1 N NaOH or saturated sodium hydrogencarbonate and the mixture was stirred at 65°C for 30 minutes the thereby introduce the doxorubicin hydrochloride in the siosomes.
After doxorubicin hydrochloride introduction, the sample was cooled in an ice bath. Gel filtration was conducted using a column (Sepharose 4, fast flow, having a diameter of 2.8 cm and a length of 20 cm, fully substituted with 10% sucrose (pH 6.5)) to remove the doxorubicin hydrochloride that had not been introduced in the siosomes.
The amount of the sugar silanes in the siosomes, the amounts of the doxorubicin hydrochloride encapsulated in the siosomes and the siosomes themselves were measured by the same methods as in the above examples.
Concentration of the doxorubicin hydrochloride encapsulated in the siosomes was determined by measuring absorbance at 480 nm, using a spectrophotometer for the solution prepared by adding 2 ml of methanol to 40 µl of the doxorubicin siosomes. An alternative HPLC-based assay has also been used for the quantification of the doxorubicin in the formulations.
The above procedures described in example 16 were employed to prepare the carrier siosomes systems in this example. According to these methods of preparation, a dispersion of each of the following organo-silicon compounds were prepared, using doxorubicin hydrochloride solutions at […]. • Sil 8.1: Decyldimethylsilyl-α-D-galactopyranosid • Sil 9.1: Dodecyldimethylsilyl-α-D-glucopyranosid • SIL 15: 1-O-Dioctadecylsilyl-di(2,3,4,6-O-tetracetyl-β-D-galactopyranosid) • SIL 14: 1-o-Dioctadecylsilyl-di(2,3,4,6-O-tetracetyl-β-D-glucopyranosid)1-o- • SIL17: Didodecylsilyl-di(2,3,4,6-O-tetracetyl-β-D-glucopyranosid) • SIL18: Tridodecylsilyl-(2,3,4,6-O-tetracetyl-β-D-glucopyranosid) • Sil22.1 Di(octadecanoyloxy)dimethylsilan
The following parameters have been determined: 1 Physico chemical properties 2 Encapsulated efficiency of doxorubicin 3 Stability 4 Particle size distribution prior to lyophilisation and after dehydration using sterile water for injection 5 Release profile

[2] = Encapsulation efficiency of nucleic acid in cationic silane siosomes; format: physicochemical; details: Example 21 (i): nucleic acid-siosomes complex of the cationic silane
Text: The cationic silanes-lipid mixture and/or the empty cationic siosomes (the same or different siosomes prepared from the same or different silanes) loaded with buffer and/or cations (2^+) such as Ca^2+, Zn^2+, Mg^2+ at selected pH-values, is hydrated in an appropriate medium containing the nucleic acid.
The mixture will be vortexed and/or sonicated for a period of time at suitable temperature.
Procedures for characterisation, particle stirring, stability, release, lyophilisation, sterilisation, rehydration, storage, and administration were employed according to this invention.

[3] = for Particle size range of the Doxorubicin-siosomes (nm): Example 18: doxorubicin-siosomes prepared from the single organosilicon compound; for Particle size of the siosomes (nm): Example 21 (i): nucleic acid-siosomes complex of the cationic silane; for Particle size range (nm): Example 16, Table 5: doxorubicin-sugar-siosomes of the cationic organosilicon compound
Procedure: The siosome size was measured using Zetasizer (Malvern Instruments).
The obtained test samples were analyzed using a Zetasizer from Malvern to measure the particle size of the Siosomes® and its concentration (via determination of the count rate which related to the sample quality and concentration).
The Zetasizer from Malvern performs particle size measurements using a process called Dynamic Light Scattering (DLS). Dynamic Light Scattering (also known as PCS - Photon Correlation Spectroscopy) measures Brownian motion and relates this to the size of the particles. It does this by illuminating the particles with a laser and analyzing the intensity fluctuations in the scattered light. If the particles or molecules are illuminated with a laser, the intensity of the scattered light fluctuates at a rate that is dependent upon the size of the particles as smaller particles are "kicked" further by the solvent molecules and move more rapidly.

[4] = Intracellular distribution of Cis-Oxoplatin within the rat liver, total platinum in liver homogenate and fractions; format: in vivo; details: for Average concentration of total platinum in the liver homogenate: 1.5 mg Cis-Oxoplatin encapsulated in Siosomes of the compound, intravenous, 3 hours after administration
Text: • 1. The objective of the study to assess the intracellular distribution of Cis-Oxoplatin (as model drug molecule) in rat liver using Cis-Oxoplatin encapsulated in Siosomes®, using the following organosilicon compounds: • a. Sugar Organosilicon Compound: Didodecylsilyi-di(2,3,4,6-O-tetraacetyl-β-D-glucopyranosid (SIL 17) • b. Cationic Sugar Organosilicon Compound: 2.2-(Dimethyloctylsilylcholin)ethyl- β-D-glucopyranosid (SIL62) • c. Anionic Sugar Organosilicon Compound: 2-(Dimethyidecylsilyl)ethyl-β-D-glucopyranosidsulfate (SIL56) • d. Zwitterionic Sugar Organosilicon Compound: 2-(N,N,N, trimethylammonianonaylsilyl)ethyl- P-D-glucopyranosidsulfate (SIL66) • e. PEGylated Organosilicon Compound: 2-(Dimethyloctylsilylcholin)ethyl-β-D-PEG-acetylglucosaminether (SIL54) • 2. The different Siosomes® using each of the above mentioned organosilicon compounds have been prepared according to the procedures of this invention. The particle size range of the Siosomes® was 120-300 nm.
The Platinum-Siosomes®-Complex formulations were supplied in vials containing 10 mg each. Before administration, the contents of each vial was dissolved using 2 ml of sterile distilled water.
Each rat was administered with 1.5 mg investigative formulation, therefore each rat was administered 300 µl.
At the start of the study, all animals in all treatment groups received 1.5 mg of investigative drug. All drugs given via intravenous route were treated in an ultrasonic bath for five minutes at room temperature.
Tissue fractionation was performed by differential centrifugation yielding 5 fractions: • a. Mitochondrial fraction • b. Cytosol • c. Lysosomes • d. Microsomal fraction • e. Membrane fraction
Animals have been sacrificed 3 hours after the administration of the Siosomes® formulations. The livers have been removed from all animals. The liver homogenate has been prepared from the liver of each treatment group and used for the fractionation of the liver cells.
Each of the animals in the treatment control group for the determination of total platinum in the liver homogenate have been administered the Drug-Siosomes® formulations in the same way/procedures as the treatment groups.
Total platinum concentrations have been determined in each fraction for the treated and untreated animal groups. • Average animal weight = 211.64 ± 21.23 g • Average liver weight = 10.40 ± 1.27 g • Average concentration of total platinum in the liver homogenate of the treatment groups (control) • Group 1: Sugar Organosilicon Compound = 2.34 ± 0.82 µg/g • Group 2: Cationic Sugar Organosilicon Compound = 4.40 ± 1.30 µg/g • Group 3: Anionic Sugar Organosilicon Compound = 2.20 ± 0.90 µg/g • Group 4: Zwitterionic Sugar Organosilicon Compound = 3.10 ± 0.70 µg/g • Group 5: PEGylated Organosilicon Compound = 2.90 ± 1.20 µg/g

[5] = format: physicochemical; details: unloaded Siosomes
Procedure: The following are the general procedures according to this invention for the preparation of the Siosomes® using ethanol injection method: • An ethanol solution of the Sugar Silane was injected rapidly into an excess of de-ionized water through a syringe equipped with a fine needle. The force of injection is in many cases sufficient to achieve a good Siosomes® suspension. In some cases the Siosomes® suspension was sonicated during the injection and afterwards for additional 15-45 minutes. The ratio of injected ethanol to water is maintained in a way that the resulting suspension contains not more than 4-7.5% ethanol. The Siosomes® suspension was prepared with a Sugar Silane concentration of 0.5-2.5 mg/ml depending on the used Silane. With this concentration, the final Siosomes® suspension is ready for use for many applications and for the preparation of the lyophilised Siosomes® powder.
The unloaded Siosomes® prepared according to the procedures of this invention using ethanolic solution injection has been investigated for stability.
The following parameters have been considered: • The optimal particle size of the Siosomes® for the further application of the Siosomes® for the encapsulation of active, for screening and for the performance of in-vitro and in-vivo animal studies • The optimal manufacturing conditions to achieve the best particle size distribution for the required particle size (approximately 90 %) • The performance of the Stability testing for the unloaded Siosomes® using the particle size measurements and their distribution • The performance of the Stability testing of the prepared unloaded Siosomes® at 4°C, 25°C and 37°C and 42°C • Stability testing of the prepared encapsulated Siosomes® at: Acidic conditions, alkaline conditions, oxidative conditions and light
All measurements are performed with a Malvern Zetaziser. The Zetasizer was programmed to perform 3 x 15 measurements for each sample. For each temperature and reading point (for each temperature test series 12 sample measurements were performed) two samples has been tested.
The count rate is measured in Kcps (Kilo counts per second), and enables the samples quality and concentration to be checked.

[6] = Example 18: doxorubicin-siosomes prepared from the single organosilicon compound
[7] = Example 16, Table 5: doxorubicin hydrochloride in sugar siosomes of the cationic organosilicon compound

| Molecule | Encapsulation efficiency (%) [1, 6] | Encapsulation efficiency (%) [2] | Particle size range of the Doxorubicin-siosomes (nm) [3] | Particle size of the siosomes (nm) [3] | Encapsulation efficiency (%) [1, 7] | Particle size range (nm) [3] | intracellular distribution of the encapsulated drug in all fractions ([4]; rat liver fractions (mitochondrial, cytosol, lysosomes, microsomal, membrane), intravenous application, compared with other Siosomes) | Average concentration of total platinum in the liver homogenate ([4]; rats) [µg/g] | concentration of total platinum in the liver homogenate compared with the other treatment groups ([4]; rats, i.v administration of Cis-Oxoplatin Siosomes, 3 hours) | particle size diameter ([5]; 42°C) | stability of the aqueous solutions of the Siosomes suspensions ([5]; 4°C, 25°C, 37°C and 42°C) | count rate ([5]; 42°C) | count rate ([5]; over several days) |
| --- | --- | --- | --- | --- | --- | --- | --- | --- | --- | --- | --- | --- | --- |
| 1. 2-(Di-N,N,N, trimethylammoniadecylsilyl) ethyl-beta-D-glucopyranosid [SIL 63] | 65-70% | 70-80% | 120-200 nm | 150-250 nm | – | – | – | – | – | – | – | – | – |
| 1. 2-(Dimethyldecylsilyl) ethyl-beta-D-glucosamin [SIL 61] | 80-85% | 80-85% | 200-220 nm | 80-120 nm | 75-82% | 120-240 nm | – | – | – | – | – | – | – |
| 2-(N,N,N,Dimethylammonia-methyl-decylsilyl)ethyl-beta-D-glucopyranosid [SIL 65] | 60-70% | 80-85% | 200-250 nm | 160-240 nm | – | – | – | – | – | – | – | – | – |
| 2. 2-(Dimethyloctylsilylcholin) ethyl-beta-D-glucopyranosid [SIL 62] | 70-75% | 75-80% | 220-250 nm | 110-180 nm | 70-80% | 150-220 nm | significantly higher | 4.40 ± 1.30 | significantly higher | – | – | – | – |
| CCCCCCCCCC[Si](C)(C)CCO[C@@H]1O[C@H](CO)[C@@H](O)[C@H](O)[C@H]1O [SIL 2, 2-(Dimethyldecylsilyl)ethyl-β-D-glucopyranosid] | – | – | – | – | – | – | – | – | – | growing after 4 days | – | – | – |
| CCCCCCCCCCCC[Si](CCCCCCCCCCCC)(O[C@@H]1O[C@H](COC(C)=O)[C@@H](OC(C)=O)[C@H](OC(C)=O)[C@H]1OC(C)=O)O[C@@H]1O[C@H](COC(C)=O)[C@@H](OC(C)=O)[C@H](OC(C)=O)[C@H]1OC(C)=O [SIL 17, Didoceclylsilyl-di(2,3,4,6-O-tetraacetyl-β-D-glucopyranosid)] | 80-85% | – | 180-240 nm | – | – | – | – | 2.34 ± 0.82 | – | – | stable for several days | drops a little bit after several days but not drastically | stable |
| Di-N,N,N, trimethylammoniadidodecylsilyl-di(2,3,4,6-O-tetraacetyl-beta-D-glucopyranosid) [SIL 64] | 70-75% | 65-75% | 140-220 nm | 120-220 nm | 70-85% | 120-200 nm | – | – | – | – | – | – | – |
